Common to all, as to format: cell-based
The subject of experiment [1] is Huh-7. The experiment is described as follows: Inhibition of HCV genotype-2b NS5A harboring methionine at position 31 infected in human HuH7 cells by luciferase reporter gene assay. The note with it: Hepatitis C virus subtype 2b. For orientation: In a reporter assay the amount or activity of a reporter protein is the signal.
The subject of experiment [2] is Nonstructural protein 5A (Hepatitis C virus), Q5L478 [UNDEFINED MUTATION]. The experiment can be described thus: Inhibition of HCV genotype-1a NS5A L31V mutant infected in human HuH7 cells by luciferase reporter gene assay. The note with it: Hepatitis C virus subtype 1a; Huh-7.
Experiment [3] deals with Huh-7. The experiment is described as follows: Inhibition of HCV genotype-3a NS5A infected in human HuH7 cells by luciferase reporter gene assay. The note with it: Hepatitis C virus subtype 3a.
The test system of experiment [4] is Huh-7. The experiment can be described thus: Inhibition of HCV genotype-1a NS5A infected in human HuH7 cells by luciferase reporter gene assay. The note with it: Hepatitis C virus subtype 1a.
Experiment [5] has as its system T1, Nonstructural protein 5A (Hepatitis C virus), Q5L478 [Y93H].
T1 sequence (whole entry): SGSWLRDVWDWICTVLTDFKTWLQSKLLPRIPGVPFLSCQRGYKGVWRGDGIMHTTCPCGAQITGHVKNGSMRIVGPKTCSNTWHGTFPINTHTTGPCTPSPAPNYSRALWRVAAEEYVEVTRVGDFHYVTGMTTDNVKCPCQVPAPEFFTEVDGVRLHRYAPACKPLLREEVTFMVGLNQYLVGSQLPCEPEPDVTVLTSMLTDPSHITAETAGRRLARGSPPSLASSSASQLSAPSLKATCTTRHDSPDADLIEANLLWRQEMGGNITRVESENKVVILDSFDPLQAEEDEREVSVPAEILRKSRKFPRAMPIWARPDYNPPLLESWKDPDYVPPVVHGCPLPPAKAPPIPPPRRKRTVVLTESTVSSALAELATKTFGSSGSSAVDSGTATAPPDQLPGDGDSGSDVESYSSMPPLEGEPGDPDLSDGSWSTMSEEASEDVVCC
The experiment can be described thus: Inhibition of HCV genotype-1a NS5A Y93H mutant infected in human HuH7 cells by luciferase reporter gene assay. The note with it: Hepatitis C virus subtype 1a; Huh-7.

Experiment [6] concerns Huh-7. The experiment is described as follows: Inhibition of HCV genotype-4a NS5A infected in human HuH7 cells by luciferase reporter gene assay. The note with it: Hepatitis C virus subtype 4a.

Each structure is given as a SMILES string.

Consider `CCc1ncc(C2Oc3cc(-c4cnc([C@@H]5CCCN5C(=O)[C@@H](NC(=O)OC)C(C)C)[nH]4)cc(F)c3-c3cc4cc(-c5cnc([C@@H]6C[C@H]7C[C@H]7N6C(=O)[C@@H](NC(=O)OC)C(C)C)[nH]5)ccc4n32)s1` (stereo partly specified), for which the EC90 in the experiment with Huh-7 [1] is 0.21 nM; in experiment [2], 0.022 nM; in the experiment on Huh-7 [3], 0.012 nM; in the experiment on Huh-7 [4], 0.005 nM; in experiment [5] it was 0.04 nM; in the experiment with Huh-7 [6], 0.008 nM.

Regarding `COC(=O)N[C@H](C(=O)N1CCC[C@H]1c1ncc(-c2cc(F)c3c(c2)OC(c2nc4ccccc4o2)n2c-3cc3cc(-c4cnc([C@@H]5CCCN5C(=O)[C@@H](NC(=O)OC)C(C)C)[nH]4)ccc32)[nH]1)C(C)C` (stereo partly specified), the 90% effect concentration (EC90) with Huh-7 [1] came out at 1 nM; in experiment [2], 0.042 nM; in the experiment with Huh-7 [3] it was 0.025 nM; with Huh-7 [4] it was 0.004 nM; in experiment [5] it was 0.32 nM; in the experiment with Huh-7 [6], 0.008 nM.

Turning to `COC(=O)N[C@H](C(=O)N1CCC[C@H]1c1ncc(-c2cc(F)c3c(c2)OC(c2cnc(C4(C)CC4)s2)n2c-3cc3cc(-c4cnc([C@@H]5C[C@H]6C[C@H]6N5C(=O)[C@@H](NC(=O)OC)C(C)C)[nH]4)ccc32)[nH]1)C(C)C` (stereo partly specified), the EC90 in the experiment with Huh-7 [1] was determined as 0.18 nM; in experiment [2], 0.007 nM; with Huh-7 [3], 0.009 nM; in the experiment with Huh-7 [4] it was 0.005 nM; in experiment [5], 0.02 nM; in the experiment with Huh-7 [6], 0.005 nM.

Turning to `COC(=O)N[C@H](C(=O)N1CCC[C@H]1c1ncc(-c2cc(F)c3c(c2)OC(c2cnc(C(C)C)s2)n2c-3cc3cc(-c4cnc([C@@H]5CCCN5C(=O)[C@@H](NC(=O)OC)C(C)C)[nH]4)ccc32)[nH]1)C(C)C` (stereo partly specified), the EC90 with Huh-7 [1] amounted to 0.14 nM; in experiment [2], 0.022 nM; with Huh-7 [3] it was 0.006 nM; in the experiment with Huh-7 [4] it was 0.002 nM; in experiment [5], 0.05 nM; in the experiment with Huh-7 [6] it was 0.004 nM.

For `COC(=O)N[C@H](C(=O)N1CCC[C@H]1c1ncc(-c2cc(F)c3c(c2)OC(c2cc4c(s2)CCC4)n2c-3cc3cc(-c4cnc([C@@H]5C[C@H]6C[C@H]6N5C(=O)[C@@H](NC(=O)OC)C(C)C)[nH]4)ccc32)[nH]1)C(C)C` (stereo partly specified), the concentration for an effect of 90% (EC90) was 0.67 nM with Huh-7 [1]; 0.015 nM in experiment [2]; 0.012 nM in the experiment with Huh-7 [3]; 0.006 nM in the experiment with Huh-7 [4]; 0.2 nM in experiment [5]; 0.005 nM in the experiment with Huh-7 [6].

With `COC(=O)N[C@H](C(=O)N1CCC[C@H]1c1ncc(-c2cc(F)c3c(c2)OC(c2cnc(OC)s2)n2c-3cc3cc(-c4cnc([C@@H]5CCCN5C(=O)[C@@H](NC(=O)OC)C(C)C)[nH]4)ccc32)[nH]1)C(C)C` (stereo partly specified), the EC90 was found to be 0.068 nM in the experiment on Huh-7 [1]; 0.015 nM in experiment [2]; 0.007 nM with Huh-7 [3]; 0.002 nM in the experiment with Huh-7 [4]; 0.035 nM in experiment [5]; 0.004 nM in the experiment with Huh-7 [6].

On to `COC(=O)N[C@H](C(=O)N1CCC[C@H]1c1ncc(-c2cc(F)c3c(c2)OC(c2cc(C)c(C4CC4)s2)n2c-3cc3cc(-c4cnc([C@@H]5CCCN5C(=O)[C@@H](NC(=O)OC)C(C)C)[nH]4)ccc32)[nH]1)C(C)C` (stereo partly specified), for which the EC90 in the experiment on Huh-7 [1] was 0.88 nM; in experiment [2] it was 0.009 nM; in the experiment with Huh-7 [3], 0.004 nM; in the experiment on Huh-7 [4] it was 0.002 nM; in experiment [5], 1.7 nM; in the experiment on Huh-7 [6], 0.002 nM.

Regarding `COC(=O)N[C@H](C(=O)N1CCC[C@H]1c1ncc(-c2cc(F)c3c(c2)OC(c2ccc(C(C)C)s2)n2c-3cc3cc(-c4cnc([C@@H]5CCCN5C(=O)[C@@H](NC(=O)OC)C(C)C)[nH]4)ccc32)[nH]1)C(C)C` (stereo partly specified), the 90% effect concentration (EC90) is 0.52 nM in the experiment with Huh-7 [1]; 0.01 nM in experiment [2]; 0.001 nM with Huh-7 [3]; 0.002 nM in the experiment on Huh-7 [4]; 0.13 nM in experiment [5]; 0.003 nM with Huh-7 [6].

On to `COC(=O)N[C@H](C(=O)N1CCC[C@H]1c1ncc(-c2cc(F)c3c(c2)OC(c2ccc(C#N)s2)n2c-3cc3cc(-c4cnc([C@@H]5CCCN5C(=O)[C@@H](NC(=O)OC)C(C)C)[nH]4)ccc32)[nH]1)C(C)C` (stereo partly specified), for which the 90% effect concentration (EC90) is 3.4 nM in the experiment with Huh-7 [1]; 0.087 nM in experiment [2]; 0.013 nM with Huh-7 [3]; below 0.002 nM in the experiment on Huh-7 [4]; 2.38 nM in experiment [5]; 0.004 nM in the experiment on Huh-7 [6].

For the molecule `COC(=O)N[C@H](C(=O)N1CCC[C@H]1c1ncc(-c2cc(F)c3c(c2)OC(c2ccc(CC(F)(F)F)s2)n2c-3cc3cc(-c4cnc([C@@H]5CCCN5C(=O)[C@@H](NC(=O)OC)C(C)C)[nH]4)ccc32)[nH]1)C(C)C` (stereo partly specified), the EC90 in the experiment with Huh-7 [1] worked out at 0.65 nM; in experiment [2], 0.022 nM; in the experiment with Huh-7 [3], 0.007 nM; in the experiment on Huh-7 [4], 0.001 nM; in experiment [5] it was 0.1 nM; in the experiment with Huh-7 [6] it was 0.004 nM.

As to `COC(=O)N[C@H](C(=O)N1CCC[C@H]1c1ncc(-c2cc(F)c3c(c2)OC(c2cc4c(s2)CCCC4)n2c-3cc3cc(-c4cnc([C@@H]5CCCN5C(=O)[C@@H](NC(=O)OC)C(C)C)[nH]4)ccc32)[nH]1)C(C)C` (stereo partly specified), the EC90 in the experiment with Huh-7 [1] is 0.61 nM; in experiment [2] it was 0.027 nM; in the experiment with Huh-7 [3] it was 0.02 nM; in the experiment on Huh-7 [4] it was 0.005 nM; in experiment [5], 0.31 nM; with Huh-7 [6], 0.008 nM.

As for `COC(=O)N[C@H](C(=O)N1CCC[C@H]1c1ncc(-c2cc(F)c3c(c2)OC(c2cnc(C4(C)CC4)s2)n2c-3cc3cc(-c4cnc([C@@H]5CCCN5C(=O)[C@@H](NC(=O)OC)C(C)C)[nH]4)ccc32)[nH]1)C(C)C` (stereo partly specified), the EC90 with Huh-7 [1] turned out to be 0.68 nM; in experiment [2], 0.065 nM; in the experiment on Huh-7 [3] it was 0.046 nM; in the experiment with Huh-7 [4] it was 0.017 nM; in experiment [5], 0.38 nM; in the experiment on Huh-7 [6], 0.027 nM.

For `COC(=O)N[C@H](C(=O)N1CCC[C@H]1c1ncc(-c2cc(F)c3c(c2)OC(c2cnns2)n2c-3cc3cc(-c4cnc([C@@H]5CCCN5C(=O)[C@@H](NC(=O)OC)C(C)C)[nH]4)ccc32)[nH]1)C(C)C` (stereo partly specified), the EC90 in the experiment on Huh-7 [1] was determined as 0.72 nM; in experiment [2], 0.14 nM; in the experiment on Huh-7 [3] it was 0.047 nM; with Huh-7 [4] it was 0.003 nM; in experiment [5], 0.36 nM; with Huh-7 [6], 0.012 nM.

As to `COC(=O)N[C@H](C(=O)N1CCC[C@H]1c1ncc(-c2cc(F)c3c(c2)OC(c2ccc(C(F)F)s2)n2c-3cc3cc(-c4cnc([C@@H]5CCCN5C(=O)[C@@H](NC(=O)OC)C(C)C)[nH]4)ccc32)[nH]1)C(C)C` (stereo partly specified), the EC90 was 0.26 nM in the experiment on Huh-7 [1]; 0.016 nM in experiment [2]; 0.007 nM in the experiment with Huh-7 [3]; 0.002 nM with Huh-7 [4]; 0.14 nM in experiment [5]; 0.005 nM in the experiment on Huh-7 [6].

Take `CCc1ncc(C2Oc3cc(-c4cnc([C@@H]5CCCN5C(=O)[C@@H](NC(=O)OC)C(C)C)[nH]4)cc(F)c3-c3cc4cc(-c5cnc([C@@H]6CCCN6C(=O)[C@@H](NC(=O)OC)C(C)C)[nH]5)ccc4n32)s1` (stereo partly specified): the EC90 amounted to 0.097 nM in the experiment on Huh-7 [1]; 0.048 nM in experiment [2]; 0.009 nM with Huh-7 [3]; 0.004 nM with Huh-7 [4]; 0.14 nM in experiment [5]; 0.011 nM in the experiment with Huh-7 [6].

Take `COC(=O)N[C@H](C(=O)N1CCC[C@H]1c1ncc(-c2cc(F)c3c(c2)OC(c2sc(C(C)C)nc2C)n2c-3cc3cc(-c4cnc([C@@H]5CCCN5C(=O)[C@@H](NC(=O)OC)C(C)C)[nH]4)ccc32)[nH]1)C(C)C` (stereo partly specified): the EC90 in the experiment with Huh-7 [1] is above 1.7 nM; in experiment [2] it was 0.36 nM; in the experiment with Huh-7 [3] it was 0.034 nM; with Huh-7 [4], 0.004 nM; in experiment [5] it was 12.5 nM; with Huh-7 [6], 0.009 nM.

What is called EC90 is the point of the concentration-response curve where the effect stands at 90%. Read a high EC90 as a need for much substance.

Source of the values: ChEMBL document CHEMBL3877294, “Discovery of Ruzasvir (MK-8408): A Potent, Pan-Genotype HCV NS5A Inhibitor with Optimized Activity against Common Resistance-Associated Polymorphisms” (J Med Chem, 2017).
